Here are results for two compounds from PMC6773865, “Functional recruitment of dynamin requires multimeric interactions for efficient endocytosis” (Nature Communications, 2019).

This test deals with clathrin mediated endocytosis (TfR-SEP) in NIH 3T3 cells. In words: ppH assay combined with patch-clamp dialysis. In kind it is cell-based. To be noted: for inhibition of endocytosis on dialysis: peptide dialysed through patch pipette, 3T3 cells, ppH assay; for event frequency ratio f = FWC/FCA: event frequency 8–10 min whole cell over 3–5 min cell attached, same cell, average ± SEM, SEM. As for the experimental part: To do so, we monitored cellular endocytic activity using the ppH assay with new developments for fully automated analysis on a large number of cells (See “Methods” and Supplementary Fig. 4). We combined this assay, which monitors in real time the endocytic activity of cells, with the patch-clamp technique in order to dialyse the relevant peptide at a known concentration inside the cellular cytoplasm to inhibit endocytosis acutely. Each recording consisted of 5 min in cell-attached mode (CA) with no dialysis followed by 10 min in whole cell mode (WC) during which the inhibitors were dialysed (Fig. 5a, b). Each recording therefore had its own internal control condition, i.e., the cell-attached mode, from which we obtained the frequency ratio f = FWC/FCA, where F is the event frequency recorded during the indicated mode. Of note, the electrical parameters of patch clamp recordings were similar in all conditions (Supplementary Fig. 5). To assess the innocuousness of this assay, we monitored the endocytic activity of unperturbed cells vs. cells dialysed with a control solution (see methods for composition). Patching the cells minimally affected their endocytic activity over a 10 min period (event frequency f = 67.3 ± 4.3%, n = 60, vs. 90.7 ± 14.9% in no patching recordings, n = 8, p = 0.58).
NIH 3T3 cells (ECACC 93061524) were cultured in DMEM supplemented with 1% sodium pyruvate, 1% glutamax and 10% fetal calf serum (Invitrogen). Cells were incubated at 37 °C in 5% CO2 until use and subcultured every 2 to 4 days for maintenance up to passage 20. Cells were transfected with 1.5 μg of TfR-SEP plasmid 24 h prior to imaging and patch clamp. Care was taken to find the right balance between sufficient fluorescent signal to allow for proper imaging and reasonable overexpression to diminish potential saturation artefacts. Best results were obtained using Fugene 6 (Promega) as the transfection reagent but Lipofectamine 2000 (Invitrogen) has also been used in this study due to a temporary arrest of Fugene 6 production by the provider. All transfections were performed according to the manufacturers’ recommendations. Four to eight hours after transfection, cells were seeded at a density of ~70,000 cells ml^−1 on 18 mm glass coverslips coated with poly-L-lysine (3 min application of 0.1 mM polylysine (Sigma P2636) in borate buffer, pH 8.0 followed by a quick rinse in PBS) and used the next day.
Fast solution exchange was controlled by electro-valves (Lee company) connected to a theta glass pipette (TG150, Harvard Apparatus) pulled to ∼100-μm tip size using a vertical puller (Narishige, World Precision Instruments) placed above the recorded cell. Cells were alternatively perfused with HEPES or MES buffered saline solutions (HBS/MBS) containing (in mM): 135 NaCl, 5 KCl, 0.4 MgCl2, 1.8 CaCl2, 1 D-glucose and 20 HEPES or MES. The pH was adjusted to 7.4 or 5.5 using NaOH and osmolarity to 310–315 mOsm L^−1 with NaCl.
Cells were patched with pipettes made of borosilicate glass (GC150F, Harvard Apparatus) and pulled with a vertical Narishige puller (World Precision Instruments). The solution contained (in mM): 130–140 KCH3SO3, 1 EGTA, 0.1 CaCl2, 10–20 HEPES, 4 ATP (sodium or magnesium salt), 0.4 Na-GTP (or GTPγS when indicated), 5 phosphocreatine and 3 sodium ascorbate. pH was adjusted to 7.2 using KOH and osmolarity to ~300 mOsm L^−1. Sodium ascorbate was omitted in earlier recordings but was added for better stability. Chloride ions either came from 2 mM KCl, 10 mM NaCl or 4 mM MgCl2 (when Na-ATP was used) in various trials. All salts were purchased from Sigma-Aldrich. Cells were voltage-clamped at −60 mV with an EPC10 amplifier (HEKA) with series resistance and cell capacitance estimation every 4 s in the whole cell mode. The digital triggers of the amplifier were used to drive the electrovalves for pH changes. […]

With `CC(=O)N[C@@H](Cc1ccc(O)cc1)C(=O)N[C@@H](CCCCn1cc(CCC(=O)NCCCOCCOCCOCCCNC(=O)CCC(=O)NCCCOCCOCCOCCCNC(=O)CCC(=O)NCCCOCCOCCOCCCNC(=O)CCC(=O)N2CCC[C@H]2C(=O)N2CCC[C@H]2C(=O)N2CCC[C@H]2C(=O)N[C@@H](CCC(N)=O)C(=O)N[C@H](C(=O)N2CCC[C@H]2C(=O)N[C@@H](CO)C(=O)N[C@@H](CCCNC(=N)N)C(=O)N2CCC[C@H]2C(=O)N[C@@H](CC(N)=O)C(=O)N[C@@H](CCCNC(=N)N)C(=O)N[C@@H](C)C(=O)N2CCC[C@H]2C(=O)N2CCC[C@H]2C(=O)NCC(N)=O)C(C)C)nn1)C(=O)NCCCOCCOCCOCCCNC(=O)CCC(=O)NCCCOCCOCCOCCCNC(=O)CCC(=O)NCCCOCCOCCOCCCNC(=O)CCC(=O)N1CCC[C@H]1C(=O)N1CCC[C@H]1C(=O)N1CCC[C@H]1C(=O)N[C@@H](CCC(N)=O)C(=O)N[C@H](C(=O)N1CCC[C@H]1C(=O)N[C@@H](CO)C(=O)N[C@@H](CCCNC(=N)N)C(=O)N1CCC[C@H]1C(=O)N[C@@H](CC(N)=O)C(=O)N[C@@H](CCCNC(=N)N)C(=O)N[C@@H](C)C(=O)N1CCC[C@H]1C(=O)N1CCC[C@H]1C(=O)NCC(N)=O)C(C)C` [dD15-N], the “inhibition of endocytosis on dialysis” value is reported as “clearly increased efficiency over D15”.
Regarding “Ac-YPPPQVPSRPNRAPPG-NH2 [D15, reference compound]”, the “inhibition of endocytosis on dialysis” value is given as “only partial”. Besides, the “event frequency ratio f = FWC/FCA” value (100 µM peptide in patch pipette, n = 13 (D15)) turned out to be 59.0 ± 5.0%. For the same compound, for the setting “1 mM peptide in patch pipette, n = 22 (D15), 15 (D44), 6 (dD15-C)”, the “event frequency ratio f = FWC/FCA” value is listed as 38.2 ± 3.9%.
